In patent publication US9833497B2, “Human originated EGF domain proteins and use of the same” (CHENGDU SOURCEBIO LIMITED-LIABILITY COMPANY, priority 2013, dated 2017):

Assays:
Format in all cases: cell-based
[1] = test system: Proteus vulgaris; assay: MIC against Gram-negative bacteria: Proteus vulgaris; conditions: 5×10^5 CFU/mL
How it was run: (§1)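 First, colonies from LB agar were grown in LB at 37° C, 185 rpm, to McFarland turbidity 0.5, then centrifuged and resuspended in fresh LB. Next, wells received 5×10^5 CFU/mL bacteria plus two-fold serially diluted EGF domain protein (triplicate). Finally, plates were shaken at 37° C and the no-growth concentration taken as MIC.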

[2] = test system: E. coli DH5α; assay: Antibacterial activity: MIC and growth curve against E. coli DH5α in 96-well plate; conditions: minimal inhibitory concentration against E. coli DH5α; 96-well plate, 5×10^5 CFU/mL, 37° C., judged after 8 h
How it was run: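 MIC taken as lowest protein level with no bacterial growth, tracked by A600 every 30 min during 37 °C, 175 rpm culture. Two-fold protein series 50-12.5 μg/mL final, triplicate wells, against 5×10^5 CFU/mL of LB-washed mid-log cells.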

[3] = test system: Serratia marcescens; assay: MIC against Gram-negative bacteria: Serratia marcescens; conditions: 5×10^5 CFU/mL
How it was run: as §1

[4] = test system: Proteus mirabilis; assay: MIC against Gram-negative bacteria: Proteus mirabilis; conditions: 5×10^5 CFU/mL
How it was run: as §1

[5] = test system: Klebsiella pneumonia; assay: MIC against Gram-negative bacteria: Klebsiella pneumonia; conditions: 5×10^5 CFU/mL
How it was run: as §1

[6] = test system: Moraxella catarrhalis; assay: MIC against Gram-negative bacteria: Moraxella catarrhalis; conditions: 5×10^5 CFU/mL
How it was run: as §1

[7] = test system: Aeromonas hydrophila; assay: MIC against Gram-negative bacteria: Aeromonas hydrophila; conditions: 5×10^5 CFU/mL
How it was run: as §1

[8] = test system: Pseudomonas aeruginosa; assay: MIC against Gram-negative bacteria: Pseudomonas aeruginosa; conditions: 5×10^5 CFU/mL
How it was run: as §1

[9] = test system: Enterobacter cloacae; assay: MIC against Gram-negative bacteria: Enterobacter cloacae; conditions: 5×10^5 CFU/mL
How it was run: as §1

[10] = test system: E. coli BL21; assay: MIC against Gram-negative bacteria: E. coli BL21; conditions: 5×10^5 CFU/mL
How it was run: as §1

[11] = test system: Citrobacter diversus; assay: MIC against Gram-negative bacteria: Citrobacter diversus; conditions: 5×10^5 CFU/mL
How it was run: as §1

[12] = P. vulgaris, 10 h cultivation at 37° C.
[13] = S. marcescens, 10 h cultivation at 37° C.
[14] = P. mirabilis, 10 h cultivation at 37° C.
[15] = K. pneumonia, 10 h cultivation at 37° C.
[16] = M. catarrhalis, 10 h cultivation at 37° C.
[17] = A. hydrophila, 10 h cultivation at 37° C.
[18] = P. aeruginosa, 10 h cultivation at 37° C.
[19] = E. cloacae, 10 h cultivation at 37° C.
[20] = C. diversus, 10 h cultivation at 37° C.
[21] = 10 h cultivation at 37° C., two-fold serial dilution

| Substance | MIC (μg/mL) P. vulgaris [1, 12] | MIC [2] | MIC (μg/mL) S. marcescens [3, 13] | MIC (μg/mL) P. mirabilis [4, 14] | MIC (μg/mL) K. pneumonia [5, 15] | MIC (μg/mL) M. catarrhalis [6, 16] | MIC (μg/mL) A. hydrophila [7, 17] | MIC (μg/mL) P. aeruginosa [8, 18] | MIC (μg/mL) E. cloacae [9, 19] | MIC (μg/mL) E. coli BL21 ([10]; 10 h cultivation at 37° C.) | MIC (μg/mL) C. diversus [11, 20] | MIC P. vulgaris [1, 21] | MIC S. marcescens [3, 21] | MIC P. mirabilis [4, 21] | MIC K. pneumonia [5, 21] | MIC M. catarrhalis [6, 21] | MIC A. hydrophila [7, 21] | MIC P. aeruginosa [8, 21] | MIC E. cloacae [9, 21] | MIC E. coli BL21 [10, 21] | other results |
| --- | --- | --- | --- | --- | --- | --- | --- | --- | --- | --- | --- | --- | --- | --- | --- | --- | --- | --- | --- | --- | --- |
| PRT755 (AVDYCASENHGCEHECVNADGSYLCQCHEGFALNPDKKTCT; listed as Homo sapiens) | 12.5 µg/mL | 12.5 µg/mL | 25 µg/mL | 12.5 µg/mL | 50 µg/mL | 50 µg/mL | 50 µg/mL | 12.5 µg/mL | 12.5 µg/mL | 50 µg/mL | 12.5 µg/mL |  |  |  |  |  |  |  |  |  |  |
| PRT119 (CAPCPNNGRPTLSGTECLCVCQSGTYGENCE; listed as Homo sapiens) |  | 12.5 µg/mL |  |  |  |  |  |  |  |  |  |  |  |  |  |  |  |  |  |  | MIC (μg/mL) P. vulgaris ([1]; Proteus vulgaris, 96-well plate, 37° C., 10 h): 12.5 µg/mL; MIC (μg/mL) S. marcescens ([3]; Serratia marcescens, 96-well plate, 37° C., 10 h): 12.5 µg/mL; MIC (μg/mL) P. mirabilis ([4]; Proteus mirabilis, 96-well plate, 37° C., 10 h): 25 µg/mL; MIC (μg/mL) K. pneumonia ([5]; Klebsiella pneumonia, 96-well plate, 37° C., 10 h): 50 µg/mL; MIC (μg/mL) M. catarrhalis ([6]; Moraxella catarrhalis, 96-well plate, 37° C., 10 h): 50 µg/mL; MIC (μg/mL) A. hydrophila ([7]; Aeromonas hydrophila, 96-well plate, 37° C., 10 h): 12.5 µg/mL; MIC (μg/mL) P. aeruginosa ([8]; Pseudomonas aeruginosa, 96-well plate, 37° C., 10 h): 12.5 µg/mL; MIC (μg/mL) E. cloacae ([9]; Enterobacter cloacae, 96-well plate, 37° C., 10 h): 25 µg/mL; MIC (μg/mL) E. coli BL21 ([10]; 96-well plate, 37° C., 10 h): 50 µg/mL; MIC (μg/mL) C. diversus ([11]; Citrobacter diversus, 96-well plate, 37° C., 10 h): 25 µg/mL |
| PRT1184 (NPNDCLPDPCHSRGRCYDLVNDFYCACDDGWKGKTCH; listed as Homo sapiens) |  | 50 µg/mL |  |  |  |  |  |  |  |  |  | 12.5 µg/mL | 25 µg/mL | 25 µg/mL | 25 µg/mL | 50 µg/mL | 12.5 µg/mL | 12.5 µg/mL | 50 µg/mL | 25 µg/mL | MIC C. diversus [11, 21]: 25 µg/mL |
| PRT1049 (WGENCAQTCQCHHGGTCHPQDGSCICPLGWTGHHCL; listed as Homo sapiens) |  | 12.5 µg/mL |  |  |  |  |  |  |  |  |  | 12.5 µg/mL | 50 µg/mL | 50 µg/mL | 25 µg/mL | 12.5 µg/mL | 12.5 µg/mL | 12.5 µg/mL | 12.5 µg/mL | 25 µg/mL | MIC C. diversus [11, 21]: 12.5 µg/mL |
| PRT182 (QQPICLSGCHEQNGYCSKPAECLCRPGWQGRLCN; listed as Homo sapiens) | 12.5 µg/mL | 12.5 µg/mL | 25 µg/mL | 25 µg/mL | 12.5 µg/mL | 100 µg/mL | 12.5 µg/mL | 25 µg/mL | 25 µg/mL | 12.5 µg/mL | 25 µg/mL |  |  |  |  |  |  |  |  |  |  |
| PRT658 (DVNECELMLAVCGAALCENVEGSFLCLCASDLEEYDAQEGHCR; listed as Homo sapiens) |  | 12.5 µg/mL |  |  |  |  |  |  |  |  |  |  |  |  |  |  |  |  |  |  | MIC P. vulgaris ([1]; 96-well plate, 37° C., 10 h): 50 µg/mL; MIC S. marcescens ([3]; 96-well plate, 37° C., 10 h): 12.5 µg/mL; MIC P. mirabilis ([4]; 96-well plate, 37° C., 10 h): 25 µg/mL; MIC K. pneumonia ([5]; 96-well plate, 37° C., 10 h): 25 µg/mL; MIC M. catarrhalis ([6]; 96-well plate, 37° C., 10 h): 12.5 µg/mL; MIC A. hydrophila ([7]; 96-well plate, 37° C., 10 h): 25 µg/mL; MIC P. aeruginosa ([8]; 96-well plate, 37° C., 10 h): 50 µg/mL; MIC E. cloacae ([9]; 96-well plate, 37° C., 10 h): 12.5 µg/mL; MIC E. coli BL21 ([10]; 96-well plate, 37° C., 10 h): 25 µg/mL; MIC C. diversus ([11]; 96-well plate, 37° C., 10 h): 50 µg/mL |
